According to patent publication US12516034B2, “Process for preparing high-density quercetin” (TRADICHEM INDUSTRIAL SERVICES, S.L., priority 2022, dated 2026):

Key:
Assay type in all cases: physicochemical
[1] = Bulk density (PT-SV100 Scott Volumeter); conditions: after roller compaction vs starting non-compacted quercetin
From the text: The bulk density, also called apparent density, can be defined as the ratio of the mass to the volume of an untapped powder sample, as “poured”. The bulk density is given in grams per millilitre (g/ml) and is typically calculated by “pouring” a known mass of powder into a graduated cylinder. Bulk density and tapped density can be measured according to the method disclosed in the European Pharmacopoeia section 2.9.34 (Bulk density and tapped density of powders), for example, the bulk density may be measured using the PT-SV100 Scott Volumeter and the tapped density may be measured using the PT-TD200 Tap Density Tester (Pharma Test Apparatebau AG, Germany). The bulk density was measured using a PT-SV100 Scott Volumeter (Pharma Test) and the tapped density was measured using a PT-TD200 Tap Density Tester (Pharma Test).

[2] = Tapped density (PT-TD200 Tap Density Tester); conditions: after mechanical tapping
Protocol: On the other hand, tapped density, also called compacted density, of a powder is the ratio of the mass of the powder to the volume occupied by the powder after it has been tapped for a defined period of time. Tapped density is measured by first gently introducing a known sample mass into a graduated cylinder and carefully levelling the powder without compacting it. The cylinder is then mechanically tapped by raising the cylinder and allowing it to drop under its own weight using a suitable mechanical tapped density tester that provides a suitable fixed drop distance and nominal drop rate Bulk density and tapped density can be measured according to the method disclosed in the European Pharmacopoeia section 2.9.34 (Bulk density and tapped density of powders), for example, the bulk density may be measured using the PT-SV100 Scott Volumeter and the tapped density may be measured using the PT-TD200 Tap Density Tester (Pharma Test Apparatebau AG, Germany). The bulk density was measured using a PT-SV100 Scott Volumeter (Pharma Test) and the tapped density was measured using a PT-TD200 Tap Density Tester (Pharma Test).

[3] = Carr index (compressibility index), powder flowability; conditions: for Compressibility (Carr Index): calculated from bulk and tapped density; for Flowability (type of flow according to Table 1): classification by Carr index / Hausner ratio
Protocol: The Carr index, also called Carr's index or compressibility index, is calculated according to the following formula: Free flowing powders have smaller values of the Carr index than poor flowing powders. In general, a Carr index greater than 25 is considered to be an indication of poor flowability, and below 15, of good flowability. The relationship between Carr index and/or Hausner ratio with powder flowability is well recognized in the art, for example, as disclosed by M. E. Aulton, in “Powder flow”, chapter 12 of the well-recognized reference book in pharmaceutical technology “Aulton's Pharmaceutics. The design and manufacture of medicines”, Fifth Edition 2018, M. E. Aulton and K. M. G. Taylor, Editors, Elsevier Ltd, as summarized in Table 1: Carr index was calculated from the bulk and tapped density measured values, using the following formula: […]

[4] = Hausner ratio, powder flowability; conditions: calculated from bulk and tapped density
Protocol: Hausner ratio is also predictive of powder flow, and is calculated according to the following formula: In this case, a Hausner ratio greater than 1.34 is generally considered to be an indication of poor flowability. The relationship between Carr index and/or Hausner ratio with powder flowability is well recognized in the art, for example, as disclosed by M. E. Aulton, in “Powder flow”, chapter 12 of the well-recognized reference book in pharmaceutical technology “Aulton's Pharmaceutics. The design and manufacture of medicines”, Fifth Edition 2018, M. E. Aulton and K. M. G. Taylor, Editors, Elsevier Ltd, as summarized in Table 1: Hausner ratio was also calculated using bulk and tapped density values, according to the following formula: […]

[5] = Angle of repose; conditions: tan^-1 (height/radius) of cone after pouring
From the text: The “angle of repose” is another parameter for indirectly quantifying powder flowability. It is the angle at which a material will rest on a stationary heap, specifically, is the angle formed by the heap slope and the horizontal plane. It may be calculated by different methods, commonly, just pouring the material on a flat surface. It also can be calculated as “drained angle of repose”, as the angle measured on the internal conical face of a material which has been formed when drained from an orifice of a flat-bottomed container to the horizontal. A dynamic angle of repose can also be used, which is the angle to the horizontal of the free surface formed in a relatively slowly rotating drum (Aulton, op. cit., pg. 197). In this case, the lower the value of the angle of repose, the higher the flowability of the material. It is generally considered that an angle of repose higher than 45 correlates with poor flowability, whereas an angle of repose under 30 correlates with excellent flowability. The angle of repose was determined by measuring the radius and the height of the cone formed after pouring the powder, using the formula tan^−1 (height/radius).

[6] = Solubility compared to non-compacted quercetin; conditions: compared to standard
From the text: It is advantageous, as the poor solubility of quercetin is one of the drawbacks of this substance, as it impairs its biological availability and, consequently, its therapeutic activity.

| SMILES | Increase of bulk density [1] | Tapped density [2] | Compressibility (Carr Index) [3] | Flowability (type of flow according to Table 1) [3] | Hausner ratio [4] | Angle of repose [5] | Solubility [6] |
| --- | --- | --- | --- | --- | --- | --- | --- |
| O=c1c(O)c(-c2ccc(O)c(O)c2)oc2cc(O)cc(O)c12 [Compacted quercetin, 3,3′,4′,5,7-pentahydroxyflavone] | about 200% | 0.71 g/mL | 8.45 | excellent | 1.09 | 25-30° | improved |
| O=c1c(O)c(-c2ccc(O)c(O)c2)oc2cc(O)cc(O)c12 [Non-compacted quercetin, 3,3′,4′,5,7-pentahydroxyflavone, reference compound] | – | 0.44 g/mL | 52.27 | very, very poor | 2.10 | >45° | – |
